Settings: 99.6 kPa, Liquid; for viscosity: Capillary tube (Ostwald / Ubbelohde) method; for mass density: Vibrating tube method

CNC(C)=O [N-methylacetamide]
Settings	mass density [kg/m3]	viscosity [mPa·s]
308.15 K	946.01	3.57
313.15 K	941.81	3.152
318.15 K	937.59	2.8
323.15 K	933.36	2.496
328.15 K	929.17	2.245
